Data on 19 molecules can be found in US10800754B2, “Heterocyclic amide compound” (TAKEDA PHARMACEUTICAL COMPANY LIMITED, priority 2016, dated 2020).

Molecules are shown by their SMILES.

For this test, the target named is T1, human PRS protein (Homo sapiens, UniProt P07814).
T1 construct: to construct His-Avi-hEPRS (998-1512) expression plasmid; His tag (N); Avi tag (N); TEV cleavage site (ENLYFQ/GS, encoded by forward primer hEPRS-TEV-NheF) (N); made in house; host or cells: E. coli BL21(DE3)
T1 sequence (P07814 998-1512): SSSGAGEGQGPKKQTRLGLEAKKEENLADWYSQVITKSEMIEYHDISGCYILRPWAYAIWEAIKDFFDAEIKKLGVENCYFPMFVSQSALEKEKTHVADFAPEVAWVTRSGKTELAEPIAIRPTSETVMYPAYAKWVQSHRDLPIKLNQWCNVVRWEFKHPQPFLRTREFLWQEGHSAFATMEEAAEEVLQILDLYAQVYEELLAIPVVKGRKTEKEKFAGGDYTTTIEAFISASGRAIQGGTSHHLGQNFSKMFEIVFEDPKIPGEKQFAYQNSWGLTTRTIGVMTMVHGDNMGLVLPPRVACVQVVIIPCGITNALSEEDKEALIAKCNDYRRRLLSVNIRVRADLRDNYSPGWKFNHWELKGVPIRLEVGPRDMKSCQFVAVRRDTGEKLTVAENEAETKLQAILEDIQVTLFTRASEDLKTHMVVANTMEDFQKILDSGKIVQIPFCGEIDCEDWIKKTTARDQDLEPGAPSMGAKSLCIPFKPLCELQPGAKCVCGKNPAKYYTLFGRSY
In words: PRS inhibitory activity (ATP/[32P]pyrophosphate exchange enzyme reaction). It is filed as biochemical. To be noted: 300 nM test compound; recombinant human PRS (EPRS 998-1512); read-out: inhibitory rate (%) of PRS. The protocol:
The PRS inhibitory activity of the compounds of the present invention was evaluated by the following method.
An expression plasmid of Catalytic Domain of human EPRS was obtained by PCR using human skeletal muscle cDNA Library (Takara Bio Inc.) as a template and 2 kinds of Primers 5′-[…]-3′ (hEPRS-TEV-NheF) (SEQ ID NO: 1) and 5′-[…]-3′ (hEPRS-St-Not-R) (SEQ ID NO: 2). PCR was performed using PrimeStar GXL DNA Polymerase (Takara Bio Inc.) and included (1) 98° C., 1 min, (2) cycles of 98° C., 10 sec, 65° C., 10 sec, 72° C., 1 min, and (3) reaction at 72° C., 1 min. This was cleaved with Nhe I and Not I (Takara Bio Inc.) and inserted using Ligation High (TOYOBO CO., LTD.) into the Nhe I/Not I site of pET21a (Novagen) with His-Avitag inserted thereinto. This was introduced into ECOS JM109 (NIPPON GENE CO., LTD.) to construct His-Avi-hEPRS (998-1512) expression plasmid.
Recombinant human PRS protein was prepared by transforming the His-Avi-hEPRS (998-1512) expression plasmid prepared above into ECOS Competent E. coli BL21(DE3) (NIPPON GENE CO., LTD.). Escherichia coli obtained by transformation was inoculated into 300 mL of LB medium (1% peptone, 0.5% yeast extract, 0.5% sodium chloride, 0.01% ampicillin) and cultured at 30° C. for 16 hr. The obtained culture medium was transferred into a jar culture tank charged with 6 L of the main fermentation medium (0.3% potassium dihydrogen phosphate, 0.6% disodium hydrogen phosphate, 0.1% ammonium chloride, 0.05% sodium chloride, 0.024% magnesium sulfate, 0.02% NEWPOL LB-625, 1.5% sorbitol, 1.5% casamino acid, 0.5% yeast extract, 0.01% ampicillin) and culturing was started at 37° C., quantity of airflow 5 L/min, stirring rotating speed 400 rpm. At the time point when the turbidity of the culture medium reached about 550 Klett units, the culture temperature was lowered to 16° C., isopropyl-β-D-thiogalactopyranoside (IPTG) was added to the final concentration 0.1 mM, and culturing was performed for another 16 hr to induce expression of human PRS. After completion of culturing, the culture medium was centrifuged at 5,000 rpm for 10 min. The obtained human PRS expressing Escherichia coli was suspended in a buffer containing 50 mM Tris-HCl (pH 8.0), 150 mM NaCl, 1 mM DTT, 5 U/ml Benzonase, 20 mM Imidazole and sonicated using Sonifier (BRANSON). The homogenate was centrifuged (33,000×G, 60 min, Beckman Coulter), the obtained supernatant was subjected to adsorption by passage through Ni-NTA Superflow (QIAGEN) column equilibrated in advance with 50 mM Tris-HCl (pH 8.0), 300 mM NaCl, 1 mM DTT, and elution was performed with a buffer containing 50 mM Tris-HCl (pH 8.0), 300 mM NaCl, 1 mM DTT, 250 mM Imidazole. Furthermore, gel filtration was performed using […] equilibrated in advance with a buffer containing 50 mM Tris-HCl (pH 8.0), 150 mM NaCl, 1 mM DTT, 10% glycerol to give purified human PRS protein. The protein concentration was measured using BCA Protein Assay Kit (PIERCE) and BSA as the standard.
A test compound was dissolved in 5 μL of an assay buffer (50 mM Tris-HCl (pH 7.5), 20 mM KCl, 1 mM DTT, 0.01% Tween 20) and incubated for 60 min with 5 μL of 40 nM human PRS protein dissolved in the assay buffer containing 40 mM MgCl2. An enzyme reaction of the human PRS protein was started by adding 10 μL of a substrate solution containing 300 μM ATP, 160 μM L-Proline, 400 μM pyrophosphate, [^32P]pyrophosphate (PerkinElmer, Waltham, Mass.) prepared to 1 MBq/mL. After incubation at room temperature for 30 min, the reaction was discontinued by adding 50 μL of discontinuation/washing solution (1M HCl, 200 mM sodium pyrophosphate) to the reaction mixture. The reaction solution was transferred to a filter plate (Merck Millipore, Billerica, Mass.) previously added with 200 μL of charcoal solution (0.5% HCl solution containing 10% charcoal (w/v)). […]

Consider `N#C[C@@]1(C2CC2)CCN(c2ccnc(NC(=O)Cc3cccc(-c4ccccc4)c3)c2)C1=O` [Example 9, 2-(biphenyl-3-yl)-N-(4-((3S)-3-cyano-3-cyclopropyl-2-oxopyrrolidin-1-yl)pyridin-2-yl)acetamide], for which the inhibition at 0.3 µM is 94%.

Turning to `Cn1cc(-c2cccc(CC(=O)Nc3cc(N4CC[C@@](C#N)(C5CC5)C4=O)cc(C(F)(F)F)n3)c2)cn1` [Example 61, N-(4-((3S)-3-cyano-3-cyclopropyl-2-oxopyrrolidin-1-yl)-6-(trifluoromethyl)-pyridin-2-yl)-2-(3-(1-methyl-1H-pyrazol-4-yl)phenyl)acetamide], the inhibition at 0.3 µM turned out to be 84%.

With `N#C[C@@]1(C2CC2)CCN(c2ccnc(NC(=O)Cc3cccc(-c4cnn(CC5CCCCC5)c4)c3)c2)C1=O` [Example 82, N-(4-((3S)-3-cyano-3-cyclopropyl-2-oxopyrrolidin-1-yl)pyridin-2-yl)-2-(3-(1-(cyclohexylmethyl)-1H-pyrazol-4-yl)phenyl)acetamide], the inhibition at 0.3 µM stood at 92%.

`COc1cccc(CC(=O)Nc2cc(N3CC[C@@](C#N)(C4CC4)C3=O)ccn2)c1` [Example 10, N-(4-((3S)-3-cyano-3-cyclopropyl-2-oxopyrrolidin-1-yl)pyridin-2-yl)-2-(3-methoxyphenyl)acetamide]: the inhibition at 0.3 µM stood at 88%.

On to `Cn1cc(-c2cccc(CC(=O)Nc3cc(N4CCC(C)(C)C4=O)ccn3)c2)cn1` [Example 43, N-(4-(3,3-dimethyl-2-oxopyrrolidin-1-yl)pyridin-2-yl)-2-(3-(1-methyl-1H-pyrazol-4-yl)phenyl)acetamide], for which the inhibition at 0.3 µM came out at 88%.

In the case of `COc1cc(N2CC[C@@](C#N)(C3CC3)C2=O)cc(NC(=O)Cc2cccc(-c3cnn(C)c3)c2)n1` [Example 62, N-(4-((3S)-3-cyano-3-cyclopropyl-2-oxopyrrolidin-1-yl)-6-methoxypyridin-2-yl)-2-(3-(1-methyl-1H-pyrazol-4-yl)phenyl)acetamide], the inhibition at 0.3 µM is 92%.

With `N#C[C@@]1(C2CC2)CCN(c2ccnc(NC(=O)Cc3ccsc3)c2)C1=O` [Example 15, N-(4-((3S)-3-cyano-3-cyclopropyl-2-oxopyrrolidin-1-yl)pyridin-2-yl)-2-(3-thienyl)acetamide], the inhibition at 0.3 µM came out at 84%.

As to `C=CC[C@]1(C#N)CCN(c2ccnc(NC(=O)Cc3cccc(-c4cnn(C)c4)c3)c2)C1=O` [Example 22, N-(4-((3R)-3-allyl-3-cyano-2-oxopyrrolidin-1-yl)pyridin-2-yl)-2-(3-(1-methyl-1H-pyrazol-4-yl)phenyl)acetamide], the inhibition at 0.3 µM was found to be 87%.

For the molecule `COCCOCCn1cc(-c2cccc(CC(=O)Nc3cc(N4CC[C@@](C#N)(C5CC5)C4=O)ccn3)c2)cn1` [Example 86, N-(4-((3S)-3-cyano-3-cyclopropyl-2-oxopyrrolidin-1-yl)pyridin-2-yl)-2-(3-(1-(2-(2-methoxyethoxy)ethyl)-1H-pyrazol-4-yl)phenyl)acetamide], the inhibition at 0.3 µM came to 96%.

For `N#C[C@@]1(C2CC2)CCN(c2ccnc(NC(=O)Cc3cccc(Br)c3)c2)C1=O` [Example 21, 2-(3-bromophenyl)-N-(4-((3S)-3-cyano-3-cyclopropyl-2-oxopyrrolidin-1-yl)pyridin-2-yl)acetamide], the inhibition at 0.3 µM is 89%.

In the case of `C=CC[C@]1(C#N)CCN(c2ccnc(NC(=O)Cc3cccc(-c4ccsc4)c3)c2)C1=O` [Example 24, N-(4-((3R)-3-allyl-3-cyano-2-oxopyrrolidin-1-yl)pyridin-2-yl)-2-(3-(3-thienyl)phenyl)acetamide], the inhibition at 0.3 µM worked out at 71%.

Consider `N#C[C@@]1(C2CC2)CCN(c2ccnc(NC(=O)Cc3cccc(-c4cccnc4)c3)c2)C1=O` [Example 34, N-(4-((3S)-3-cyano-3-cyclopropyl-2-oxopyrrolidin-1-yl)pyridin-2-yl)-2-(3-(pyridin-3-yl)phenyl)acetamide], for which the inhibition at 0.3 µM was determined as 97%.

In the case of `N#C[C@@]1(C2CC2)CCN(c2ccnc(NC(=O)Cc3csc4ccccc34)c2)C1=O` [Example 28, 2-(1-benzothiophen-3-yl)-N-(4-((3S)-3-cyano-3-cyclopropyl-2-oxopyrrolidin-1-yl)pyridin-2-yl)acetamide], the inhibition at 0.3 µM is 94%.

With `N#Cc1ccc(-c2cccc(CC(=O)Nc3cc(N4CC[C@@](C#N)(C5CC5)C4=O)ccn3)c2)s1` [Example 36, N-(4-((3S)-3-cyano-3-cyclopropyl-2-oxopyrrolidin-1-yl)pyridin-2-yl)-2-(3-(5-cyano-2-thienyl)phenyl)acetamide], the inhibition at 0.3 µM is 96%.

On to `N#C[C@@]1(C2CC2)CCN(c2ccnc(NC(=O)Cc3ccccc3)c2)C1=O` [Example 2, N-(4-((3S)-3-cyano-3-cyclopropyl-2-oxopyrrolidin-1-yl)pyridin-2-yl)-2-phenylacetamide], for which the inhibition at 0.3 µM came to 85%.

On to `N#C[C@@]1(C2CC2)CCN(c2cc(NC(=O)Cc3cccc(Cl)c3)ncn2)C1=O` [Example 126, 2-(3-chlorophenyl)-N-(6-((3S)-3-cyano-3-cyclopropyl-2-oxopyrrolidin-1-yl)pyrimidin-4-yl)acetamide], for which the inhibition at 0.3 µM was 57%.

As to `N#C[C@@]1(C2CC2)CCN(c2ccnc(NC(=O)Cc3ccc(Cl)s3)n2)C1=O` [Example 130, 2-(5-chloro-2-thienyl)-N-(4-((3S)-3-cyano-3-cyclopropyl-2-oxopyrrolidin-1-yl)pyrimidin-2-yl)acetamide], the inhibition at 0.3 µM was 84%.

Regarding `CS(=O)(=O)CCn1cc(-c2cccc(CC(=O)Nc3cc(N4CC[C@@](C#N)(C5CC5)C4=O)ccn3)c2)cn1` [Example 89, N-(4-((3S)-3-cyano-3-cyclopropyl-2-oxopyrrolidin-1-yl)pyridin-2-yl)-2-(3-(1-(2-(methylsulfonyl)ethyl)-1H-pyrazol-4-yl)phenyl)acetamide], the inhibition at 0.3 µM is 100%.

Take `Cc1cc(N2CC(C)C(C#N)(C3CC3)C2=O)cc(NC(=O)Cc2ccccc2)n1` (stereo not shown) [Example 54, N-(4-(3-cyano-3-cyclopropyl-4-methyl-2-oxopyrrolidin-1-yl)-6-methylpyridin-2-yl)-2-phenylacetamide]: the inhibition at 0.3 µM is 77%.
